Assay results reported in ChEMBL document CHEMBL3286251, “Treatment of Immunological or Inflammatory Disorders with ITK Kinase Inhibitors” (ACS Med Chem Lett, 2014).

Biological target: T1, Tyrosine-protein kinase ITK/TSK (Homo sapiens, UniProt Q08881)
T1 sequence (Q08881 whole entry): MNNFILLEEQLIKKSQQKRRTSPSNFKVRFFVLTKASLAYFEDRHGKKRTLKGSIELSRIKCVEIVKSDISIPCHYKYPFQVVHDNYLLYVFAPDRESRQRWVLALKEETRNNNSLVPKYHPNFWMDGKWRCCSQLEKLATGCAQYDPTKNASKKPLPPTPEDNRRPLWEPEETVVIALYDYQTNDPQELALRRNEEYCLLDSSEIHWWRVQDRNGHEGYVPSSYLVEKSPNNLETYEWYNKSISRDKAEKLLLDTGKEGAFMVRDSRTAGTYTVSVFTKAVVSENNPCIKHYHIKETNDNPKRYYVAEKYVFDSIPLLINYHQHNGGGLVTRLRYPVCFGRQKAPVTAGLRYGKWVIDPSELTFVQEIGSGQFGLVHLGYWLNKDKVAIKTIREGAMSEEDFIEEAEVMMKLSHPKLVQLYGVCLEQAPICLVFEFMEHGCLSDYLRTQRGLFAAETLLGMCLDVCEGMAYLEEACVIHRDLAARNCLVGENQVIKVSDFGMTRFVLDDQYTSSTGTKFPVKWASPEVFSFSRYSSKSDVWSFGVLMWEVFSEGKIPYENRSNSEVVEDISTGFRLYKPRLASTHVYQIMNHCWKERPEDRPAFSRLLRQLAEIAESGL
Assay: Inhibition of ITK (unknown origin) using Acetyl-EFPIYDFLPAKKK-NH2 peptide as substrate after 1 hr by LC-MS analysis

Structure (SMILES): CC12Cc3[nH]nc(C(=O)Nc4cnn(C(CS(C)(=O)=O)c5cccnc5)c4)c3CC1C2 (stereo unspecified)
- Ki: < 100 pM
